The values that follow are results of earlier work, collected in US9314429B2, “Rapidly dispersible dosage form of oxcarbazepine” (APRECIA PHARMACEUTICALS COMPANY, priority 2013, dated 2016).

Structures are written as SMILES.

As for `NC(=O)N1c2ccccc2CC(=O)c2ccccc21` [OXC, 10,11-Dihydro-10-oxo-5H-dibenz[b,f]azepine-5-carboxamide], the water solubility result is “poorly water soluble”.
